The numbers were not newly measured in patent publication US20090114566A1, “METHOD OF UPGRADING HEAVY HYDROCARBON STREAMS TO JET PRODUCTS” (Chevron U.S.A. Inc., priority 2007, published 2009), which cites them from elsewhere.

Read-outs that look alike come from different tables or passages of the source.

The subject of the series is rats.

For `O=C(O)[C@H](O)[C@@H](O)[C@H](O)[C@H](O)CO` [gluconic acid], the LD50 (single oral dose to rats) is listed as 10380 mg/kg.
Regarding `O=C(O)CC(S)C(=O)O` (stereo not drawn) [mercapto-succinic acid], the 50% lethal dose (LD50) (rat, in vivo, po) is listed as 800 mg/kg.
For the molecule `CC(O)C(=O)O` (stereo not drawn) [lactic acid], the 50% lethal dose (LD50) (single oral dose to rats) is listed as 3543 mg/kg.
As to `CCOCC(=O)O` [ethoxy-acetic acid], the LD50 (rat, in vivo, po) is reported as 1292 mg/kg.
On to `O=C(O)CC(O)C(=O)O` (stereo not drawn) [malic acid], for which the median lethal dose (LD50) (single oral dose to rats) is 1600 mg/kg.
Regarding `O=CC(=O)O` [glyoxylic, glyoxylic acid], the LD50 (rat, in vivo, po) is listed as 3000 mg/kg.
With `O=C(O)/C=C/C(=O)O` [fumaric acid], the LD50 (rat, in vivo, po) is listed as 10700 mg/kg.
Take `O=C(O)CCC(=O)O` [succinic acid]: the median lethal dose (LD50) (rat, in vivo, po) is on record as 500 mg/kg.
On to `COCC(=O)O` [methoxy-acetic acid], for which the LD50 (rat, in vivo, po) is 3200 mg/kg.
